# Assay results: a melting point compilation (Tetko et al.; mined from patent text by program, amines drawn as free bases though some values may be those of a salt)
row,SMILES,melting point [°C]
1,O=C1Nc2ccccc2N(C(=O)CN2CCCC(CN3CCCCC3)C2)c2ccccc21 (centres undefined),150 to 152
2,CCC(CC)c1nc(CN(C)C(=O)N[C@H](C(=O)N[C@@H](Cc2ccccc2)C[C@H](O)[C@H](Cc2ccccc2)NC(=O)OCc2cncs2)C(C)C)cs1,64 to 66
3,CN(C)C=Cc1cccnc1C#N,71.5 to 72
4,N#CCCCCCCCn1c(-c2ccccc2)nc(-c2ccccc2)c1-c1ccccc1,93 to 94
5,CC(NC(=O)OC(C)(C)C)C(=O)NC1CCN(c2c(F)cc3c(=O)c(C(=O)O)cn(C4CC4)c3c2F)C1 (centres undefined),185 to 187
6,CC(C)(C)OC(=O)Nc1cc(Cl)c(C#Cc2ccccc2)cc1[N+](=O)[O-],166 to 167
7,CC(C)c1cc(-c2ccc(F)cc2)n(-c2ccccn2)n1,80 to 81
8,O=[N+]([O-])c1cc(F)cc(I)c1O,40
9,CCc1nn2c(N)c3c(nc2c1S(=O)(=O)c1ccccc1)CCC3,> 230
10,O=C1C(Cl)=C(C2CCC(c3ccc(Cl)cc3)CC2)C(=O)c2ccccc21 (centres undefined),172 to 175
11,CNC(=S)C1=CC(CF)(CF)Oc2cc(Cl)c(Cl)cc21,142 to 143
12,CC(C)c1cc(Br)cc(C(C)C)c1N=C(c1ccccc1)c1ccccc1,114
13,COc1ccc(S(=O)(=O)Nc2ccc(Cl)cc2Cc2c(F)cccc2F)cc1OC,144
14,CCNC(=O)N1C(c2ccccc2C(=O)OCC)=NC(=O)C1(C)C(C)C (centres undefined),85 to 87
15,CCc1nc2cnc3ccccc3c2n1CCCCNS(C)(=O)=O,166 to 168
16,Cc1nc(-n2cnn(CC3CC3)c2=O)sc1C(=O)NCc1ccccn1,160 to 161
17,CCOC(=O)Cc1nn(CC(=S)Nc2cc(C(F)(F)F)ccc2Br)c(=O)c2ccccc12,160
18,CCCCCCCCCCCCCCOc1ccc(C(N)=O)cc1,128 to 130
19,NC1=CC(=O)CC(c2ccsc2)C1 (centres undefined),142 to 143
20,c1ccc2cc(OCc3ccc4ccccc4n3)ccc2c1,100 to 102

row,SMILES,melting point [°C]
1,CCN(CC)CCOc1ccc(Nc2ncc3c(n2)N(C)C(=O)N(c2ccc(Cl)cc2Cl)C3)cc1,172
2,CCOC(=O)NC1=NCC(c2ccc(OCC)cc2)N1C (centres undefined),115 to 116
3,CC(=O)N[C@@H]1CCCC[C@H]1NS(=O)(=O)c1ccc(C)cc1 (relative stereo),174 to 176
4,CCc1ccc(Cl)c(CC)c1NS(=O)(=O)c1cc(S(=O)(=O)Nc2c(CC)ccc(Cl)c2CC)c2cc(O)ccc2c1,142 to 144
5,CCOC(=O)c1cccc2c3c([nH]c12)CN(CC(=O)NC(C(=O)C(F)(F)F)C(C)C)C=C3 (centres undefined),218 to 219
6,Cc1ccc(N(c2ccc(-c3ccccc3)cc2)c2ccc(C)c(C)c2)cc1,128 to 130
7,Cc1noc(-c2nnc3c4ccccc4c(OCc4ncn(C)n4)nn23)n1,283 to 285
8,CN1CC(CNC(=N)NC(=O)c2cccnc2)CC2c3cccc4c3c(cn4C)CC21 (centres undefined),207 to 209
9,CC1(C)Oc2c(Cl)cc(Cl)cc2[C@@H](Br)[C@@H]1O (relative stereo),46
10,CC1Nc2ccccc2NC1=S (centres undefined),92 to 94
11,CC(=O)OCc1cccc2c1nc(-c1c(F)cccc1F)n2Cc1c(F)cccc1F,126 to 127
12,CC(C)(N)Cc1ccc(NS(=O)(=O)c2ccccc2)cc1,180 to 181
13,Clc1cnnc(Cl)c1Cl,61
14,Cc1c(C(=O)Nc2ccc(N3CCN(C4CCOCC4)CC3)c(C#N)c2)cnn1-c1ccc(C(F)(F)F)cc1,274
15,CCCc1nc2c(N)nc3ccc(C)cc3c2s1,147 to 149
16,C[Si](C)(C)CC(O)(Cn1cncn1)c1ccccc1 (centres undefined),86 to 87
17,CC(C)(C)OC(=O)Nc1cc(Cl)cc(C(F)(F)F)c1,91 to 92
18,CN(C)C1CCc2[nH]c3cccc(OCc4ccccc4)c3c2C1 (centres undefined),207 to 209
19,CCOc1cccc(CC(=O)O)c1OCCCc1cn(-c2ccc(C(F)(F)F)cn2)nc1OCC,114 to 115
20,Cc1cc(C)nc(N(C(=O)Cl)c2cc(Cl)ccc2Cl)n1,121 to 123

row,SMILES,melting point [°C]
1,O=C(Nc1ccccn1)C(=O)OC1CCCCC1,62 to 64
2,O=C(Cl)c1cscc1S(=O)(=O)Cl,78 to 79
3,COc1cc(C=O)cc2c1OC(C)(C)C2,58 to 59
4,Cc1ccc(Sc2nc(Cl)c(C#N)cc2F)cc1,124 to 125
5,C/C(=C(\C#N)C(N)=S)N1CCC(O)CC1,160 to 163
6,CCCC1NS(=O)(=O)N(CCl)C1=O (centres undefined),62 to 63.5
7,CNS(=O)(=O)c1cccc(NC(=O)c2cnn3c(C(F)(F)F)cc(-c4ccc(C(F)(F)F)cc4)nc23)c1,232
8,CCOC(=O)NNC=Nc1nc(-c2ccc(C3CCCCC3)cc2)cs1,188 to 189
9,Clc1ccc2onc(Cl)c2c1,43 to 44
10,CON1CCC2(CC1)C(O)=C(c1cc(C)c(C)cc1Cl)C(=O)N2C,191 to 192
11,c1ccc(-c2cncc(CN3CCN(c4ccccc4)CC3)c2)cc1,83 to 85
12,CCOCCc1c(N=[N+]=[N-])nc(NC(=O)NCC(=O)OCC)nc1-c1ccccc1,130
13,CC(C)c1cc(O)nc(-c2ccc(Cl)cc2)n1,164
14,O=c1oc2cc(OCc3nnn[nH]3)cc(OCc3nnn[nH]3)c2c2c1C(c1ccccc1)CCC2 (centres undefined),153 to 154
15,CC(C)=C1NC(=O)c2ccccc2S1,187 to 188
16,Clc1cccc(Nc2ncnc3[nH]c(CN4CCOCC4)cc23)c1,244 to 246
17,COc1cc2c(cc1OC)C1NC(=O)CCC1=C2c1ccccc1 (centres undefined),259 to 260
18,FC(F)c1ncnc(-c2ccc(Cl)cc2Cl)c1Cl,55 to 56
19,CCN(CC)C(=O)c1cnn(C)c1C(=O)Nc1ccn2nc(N3CCOCC3)nc2c1,165 to 167
20,CC(C)n1cc(C(=O)O)c(=O)c2cc(F)c(F)c(F)c21,256 to 260

# The remaining lines, values ahead:
row,melting point [°C],SMILES
1,227 to 228,CC1(C)CCC(C)(C)c2cc(C=C=Cc3ccc(C(=O)O)cc3)ccc21
2,217 to 219,CN1C(C(=O)Nc2nncs2)=C(O)c2ccc3ccccc3c2S1(=O)=O
3,64 to 65,O=C(O)CSc1sccc1Br
4,49.5 to 50.5,CC(=O)c1ccc2c(c1)CCCS2
5,200,Cc1cc(Oc2ccc(S(=O)(=O)c3ccc(Cl)cc3)cc2)ccc1N
6,151 to 153,CC(C#Cc1cccc(OCc2ccccc2)c1)N(O)C(N)=O (centres undefined)
7,116 to 118,CC(=O)OCC1(C)SC2C(NC(=O)Cc3ccccc3)C(=O)N2C1C(=O)OCC(Cl)(Cl)Cl (centres undefined)
8,250 to 254,CC(=O)N1CCc2[nH]c3cc(-n4ccc(OCc5ccccc5)cc4=O)ccc3c2CC1
9,40 to 42,COC(=O)c1ccc(CC(=O)c2ccccc2Cl)cc1
10,168,O=C1c2cccc(O)c2C(=O)c2c(NCCCCO)ccc(O)c21
11,239 to 242,COc1ccc(Sc2cc3c(cc2Cl)C=C(C(=O)O)C(C(F)(F)F)O3)cc1 (centres undefined)
12,227 to 228,CC(=O)Nc1csc(-c2ccc3c(=O)n(CC(C)C)c(CNC(=O)OC(C)(C)C)c(-c4ccccc4)c3c2)n1
13,160 to 164,CCCc1c(OCCCOc2cccc3c2CCCC3)ccc2c1OC(CCC(=O)O)(CCC(=O)N1CCCC1)CC2=O (centres undefined)
14,170 to 171,CC(C)(C)OC(=O)NCCNC(=O)c1nocc1-c1ccccc1
15,143 to 147,O=C(C=Cc1ccccc1)c1cccc(O)c1
16,240 to 241,O=C(O)C1=Cc2cc(C#Cc3ccccc3)ccc2OC1C(F)(F)F (centres undefined)
17,93 to 95,O=C(c1ccc(Cl)cc1)c1noc(CS(=O)c2ccccc2)n1 (centres undefined)
18,143 to 146,COc1c(C=CC(=O)O)cccc1Oc1ccccc1C
19,96 to 99,CCOC(=O)Cn1c(=O)sc2cccc(Oc3ccccc3)c21
20,151 to 153,CCc1nc(C(=O)O)c(CC)c(C)c1C(c1cc(F)ccc1F)S(=O)(=O)c1ccc(F)cc1 (centres undefined)

row,melting point [°C],SMILES
1,153 to 154,CCCCCC(=O)c1c[nH]c2ccccc12
2,236 to 237,COC(=O)c1nc(NC(=O)Nc2ccccc2)ccc1Oc1nc(OC)cc(OC)n1
3,109 to 111,O=C(c1ccc(Cl)cc1)C(Cc1nc[nH]n1)c1ccc(Cl)cc1Cl (centres undefined)
4,190,Cc1cc(COc2ccc(C(=O)NC[C@@H](C(=O)NO)N3CCCCC3)cc2)c2ccccc2n1
5,197 to 200,COc1cc(-c2nn(Cc3ccccc3)c(=O)c3ccccc23)ccc1O
6,144 to 146,COC(=O)C=Cc1ccc(OCCn2c(=O)sc3cc(C(=O)c4ccccc4)ccc32)cc1
7,111 to 113,CC(C)c1ccc(Cn2nnnc2-c2ccc(OC(=O)C(C)(C)C)cc2)cc1
8,117,C=CCC(C(=O)O)c1ccc(C(=O)c2cccs2)cc1 (centres undefined)
9,151 to 153,CN1CCN(C(=O)CC2CN=C(c3cc4cccc(N(C)S(=O)(=O)c5cccs5)c4[nH]3)S2)CC1 (centres undefined)
10,149,COc1cc(NC(=S)NC(=O)c2ccccc2)cc(-c2ccccc2)c1
11,168,CCCCc1nc2cscc2n1Cc1ccc(-c2ccccc2C(=O)O)cc1
12,245 to 246,O=C(c1ccc([N+](=O)[O-])cc1)N1CCc2cc(S(=O)(=O)n3cc(-c4ccccc4)[nH]c3=O)ccc21
13,212,COc1ccc(-c2nc3cc(F)ccc3s2)cc1OC(=O)c1cccc([N+](=O)[O-])c1
14,145 to 150,O=C(O)c1ccccc1C=Cc1cccc(Br)c1
15,114 to 120,O=C(O)c1cc2ccnc(N(Cc3ccccc3)Cc3ccccc3)c2[nH]1
16,222 to 223,CC(=O)OC(C)(C)C(=O)Nc1c(C(=O)c2cc(C)ccn2)[nH]c2cc(Cl)ccc12
17,68 to 70,COC(=O)c1ccccc1N(C)C(=O)c1ccc(OC)nc1
18,75 to 78,CN(C)CCNC(=O)c1ccc(-c2cccc(CSCCOc3ccccc3)c2)cc1
19,207 to 210,NC(=O)c1cc(NCc2ccc(Cl)cc2)c([N+](=O)[O-])cc1[N+](=O)[O-]
